ChEMBL document CHEMBL1149454, “Synthesis and in vitro antitubercular activity of some 1-[(4-sub)phenyl]-3-(4-{1-[(pyridine-4-carbonyl)hydrazono]ethyl}phenyl)thiourea” (Bioorg Med Chem Lett, 2006)
In brackets after ≈: the same amount, converted by molar mass.

Columns and labels:
[1] = test system: Mycobacterium tuberculosis; assay: Antibacterial activity against Mycobacterium tuberculosis H37Rv; assay type: functional
[2] = test system: Vero; assay: Inhibition of mammalian Vero cell viability at 6.25 and 62.5 ug/ml by MTT assay; assay type: functional, cell-based; conditions: Chlorocebus sabaeus
[3] = test system: Vero; assay: Selectivity index as ratio of IC50 over MIC; assay type: functional

| SMILES | MIC [1] | IC50 [2] | Selectivity index [3] |
| --- | --- | --- | --- |
| C/C(=N/NC(=O)c1ccncc1)c1ccc(N/C(S)=N/c2ccc(C)cc2)cc1 | 1.93 µM (≈ 0.779 µg/mL) | 155 µM | – |
| C/C(=N/NC(=O)c1ccncc1)c1ccc(N/C(S)=N/c2ccc(F)cc2)cc1 | 0.49 µM (≈ 0.2 µg/mL) | > 153 µM | >312 |
| COc1ccc(N/C(S)=N\c2ccc(/C(C)=N\NC(=O)c3ccncc3)cc2)cc1 | 0.47 µM (≈ 0.197 µg/mL) | > 149 µM | – |
| CCOc1ccc(N/C(S)=N\c2ccc(/C(C)=N\NC(=O)c3ccncc3)cc2)cc1 | 0.89 µM (≈ 0.386 µg/mL) | 144 µM | – |
| C/C(=N/NC(=O)c1ccncc1)c1ccc(N/C(S)=N/c2ccccc2)cc1 | 4 µM (≈ 1.56 µg/mL) | 160 µM | – |
| C/C(=N/NC(=O)c1ccncc1)c1ccc(N/C(S)=N/c2ccc(Br)cc2)cc1 | 1.66 µM (≈ 0.778 µg/mL) | 133 µM | – |
| NNC(=O)c1ccncc1 [ISONIAZID] | 1.46 µM (≈ 0.2 µg/mL) | > 455 µM | – |
